Measurements: patent US9469650B2, “Melampomagnolide B derivatives” (BOARD OF TRUSTEES OF THE UNIVERSITY OF ARKANSAS, priority 2013, dated 2016)

Assays:
[1] = system: 786-0; experiment: panel of 60 human tumor cell lines, growth inhibition (Renal Cancer); conditions: Homo sapiens
[2] = system: SNB-75; experiment: panel of 60 human tumor cell lines, growth inhibition (CNS Cancer); conditions: Homo sapiens
[3] = system: HCT-116; experiment: panel of 60 human tumor cell lines, growth inhibition (Colon Cancer); conditions: Homo sapiens; for GI50: HCT-116, HCT-116
[4] = system: SK-MEL-2; experiment: panel of 60 human tumor cell lines, growth inhibition (Melanoma); conditions: Homo sapiens
[5] = system: SK-OV-3; experiment: panel of 60 human tumor cell lines, growth inhibition (Ovarian Cancer); conditions: Homo sapiens
[6] = system: BT-549; experiment: panel of 60 human tumor cell lines, growth inhibition (Breast Cancer); conditions: Homo sapiens
[7] = system: MCF7; experiment: as above; conditions: Homo sapiens; for GI50: MCF7, MCF7
[8] = system: RXF 393; experiment: panel of 60 human tumor cell lines, growth inhibition (Renal Cancer); conditions: Homo sapiens
[9] = system: M14; experiment: panel of 60 human tumor cell lines, growth inhibition (Melanoma); conditions: Homo sapiens
[10] = system: UACC-62; experiment: as above; conditions: Homo sapiens
[11] = system: DU-145; experiment: panel of 60 human tumor cell lines, growth inhibition (Prostate Cancer); conditions: Homo sapiens
[12] = system: HCT-15; experiment: panel of 60 human tumor cell lines, growth inhibition (Colon Cancer); conditions: Homo sapiens
[13] = system: NCI-H226; experiment: panel of 60 human tumor cell lines, growth inhibition (Non-Small Cell Lung Cancer); conditions: Homo sapiens
[14] = system: UO-31; experiment: panel of 60 human tumor cell lines, growth inhibition (Renal Cancer); conditions: Homo sapiens
[15] = system: NCI-H322M; experiment: panel of 60 human tumor cell lines, growth inhibition (Non-Small Cell Lung Cancer); conditions: Homo sapiens

## C=C1C(=O)O[C@H]2[C@H]1CC/C(COC(=O)Nc1n[nH]c(SC)n1)=C\CC[C@@]1(C)O[C@@H]21 [JVM 64, ((1aR,7aS,10aS,10bS,E)-1a-methyl-8-methylene-9-oxo-1a,2,3,6,7,7a,8,9,10a,10b-decahydrooxireno[2′,3′:9,10]cyclodeca[1,2-b]furan-5-yl)methyl-(5-(methylthio)-1H-1,2,4-triazol-3-yl)carbamate]
[1]; 786-0
  GI50: 1.66 µM
[1]; 786-0, read-out: LC50
  CC50: 7.2 µM
[1]; 786-0, read-out: TGI
  IC (TGI): 3.45 µM
[2]; SNB-75
  GI50: 1.71 µM
[2]; SNB-75, read-out: LC50
  CC50: 33.4 µM
[2]; SNB-75, read-out: TGI
  IC (TGI): 10.1 µM
[3]; 5-dose assay
  GI50: 1.13 µM
[3]; NCI five dose
  GI50: 1.13 µM
[3]; HCT-116, read-out: LC50
  CC50: 5.86 µM
[3]; HCT-116, read-out: TGI
  IC (TGI): 2.6 µM
[4]; SK-MEL-2
  GI50: 3.56 µM
[4]; SK-MEL-2, read-out: LC50
  CC50: 62.2 µM
[4]; SK-MEL-2, read-out: TGI
  IC (TGI): 13.1 µM
[5]; SK-OV-3
  GI50: 11.7 µM
[5]; SK-OV-3, read-out: LC50
  CC50: > 100 µM
[5]; SK-OV-3, read-out: TGI
  IC (TGI): 35.8 µM
[6]; BT-549
  GI50: 1.47 µM
[6]; BT-549, read-out: LC50
  CC50: 6.24 µM
[6]; BT-549, read-out: TGI
  IC (TGI): 3.83 µM
[7]; 5-dose assay
  GI50: 1.33 µM
[7]; NCI five dose
  GI50: 1.33 µM
[7]; MCF7, read-out: LC50
  CC50: 70.2 µM
[7]; MCF7, read-out: TGI
  IC (TGI): 10.5 µM
[8]; RXF 393, RXF 393, 5-dose assay
  GI50: 0.9 µM
[8]; RXF 393, RXF 393, NCI five dose
  GI50: 0.906 µM
[8]; RXF 393, read-out: LC50
  CC50: 6.02 µM
[8]; RXF 393, read-out: TGI
  IC (TGI): 2.41 µM
[8]; RXF 393, renal cancer cell line RXF 393
  GI50: 0.9 µM
[9]; M14
  GI50: 1.59 µM
[9]; M14, read-out: LC50
  CC50: 7.09 µM
[9]; M14, read-out: TGI
  IC (TGI): 3.36 µM
[10]; UACC-62
  GI50: 1.6 µM
[10]; UACC-62, read-out: LC50
  CC50: 15 µM
[10]; UACC-62, read-out: TGI
  IC (TGI): 4.35 µM
[11]; DU-145
  GI50: 3.49 µM
[11]; DU-145, read-out: LC50
  CC50: 38.4 µM
[11]; DU-145, read-out: TGI
  IC (TGI): 13.1 µM
[12]; HCT-15
  GI50: 2.4 µM
[12]; HCT-15, read-out: LC50
  CC50: 38 µM
[12]; HCT-15, read-out: TGI
  IC (TGI): 9.05 µM
[13]; NCI-H226
  GI50: 10.2 µM
[13]; NCI-H226, read-out: LC50
  CC50: 99.7 µM
[13]; NCI-H226, read-out: TGI
  IC (TGI): 31.9 µM
[14]; UO-31
  GI50: 1.98 µM
[14]; UO-31, read-out: LC50
  CC50: 34 µM
[14]; UO-31, read-out: TGI
  IC (TGI): 7.86 µM
[15]
  GI50: 14.2 µM
[15]; read-out: LC50
  CC50: 60.3 µM
[15]; read-out: TGI
  IC (TGI): 29.2 µM
